These results are taken from patent US9879029B2, “ERK inhibitors” (Eli Lilly and Company, priority 2014, dated 2018).

In one test the test system is CALU-6. Put plainly: Xenograft tumor model CALU-6. The format is in vivo. The conditions noted are these: oral.
Test [1] deals with human non-small cell lung cancer cells NCI-H358. Put plainly: Xenograft tumor model NCI-H358. Particulars: oral, p <0.001. The format is in vivo, female athymic nude mice. The method, then: The purpose of this assay is to measure reduction in tumor volume in response to test compound administration. Expand human colorectal cancer cells HCT116 (ATCC, #CCL-247) or human non-small cell lung cancer cells NCI-H358 (ATCC, # CRL-5807) in culture, harvest and inject 5×10e^6 cells in 200 μL of 1:1 HBSS+matrigel solution subcutaneously on to the rear right flank of female athymic nude mice (22-25 gm, Harlan Laboratories). Expand human pancreatic cancer cells SW1990 (ATCC, # CRL-2172) in culture, harvest and inject 2×10e^6 cells in 200 μL of 1:1 HBSS+matrigel solution subcutaneously on to the rear right flank of female athymic nude mice (22-25 gm, Harlan Laboratories). Expand human pancreatic cancer cells MIA PACA-2 (ATCC, # CRL-1420) or human non-small cell lung cancer cells A549 (ATCC, # CCl-185) in culture, harvest and inject 5×10e^6 cells in 200 μL of 1:1 HBSS+matrigel solution subcutaneously on to the rear right flank of female CB-17 SCID mice (22-25 gm, Charles River Laboratories International Inc.). Expand human melanoma cells A-375 (ATCC, # CRL-1619) in culture, harvest and inject 5×10e^6 cells in 200 μL of 1:1 HBSS+matrigel solution subcutaneously on to the rear right flank of female NIH nude rats (140-160 gm, Taconic Farms). […] Tumor response is determined by tumor volume measurement performed twice a week during the course of treatment.

The target in the next test is T1, ERK1 (Homo sapiens, UniProt P27361).
T1 construct: purchased Invitrogen PR5254B
The test can be described thus: ERK1 kinase assay (TR-FRET). Particulars: Abs_IC50, ATP 10 μM; ±0.608, n=16. The format is biochemical. Here is the method:
The purpose of this assay is to measure the ability of compounds to inhibit ERK1 kinase activity. Perform the ERK1 kinase assay in vitro using a TR-FRET assay. […] Incubate the reaction mixture at room temperature for 60 minutes. Stop the reaction by addition of 12.5 μL of stop buffer (10 mM EDTA, 2 nM Tb-anti-pATF2 (pThr71) antibody, Invitrogen, #PV4448) in TR-FRET dilution buffer (Invitrogen, # PV3574). Incubate the plates at room temperature for an additional 60 minutes and read on an ENVISION® (PerkinElmer) plate reader at the excitation wavelength 340 nm. Calculate the TR-FRET ratio by dividing the GFP acceptor emission signal (at 520 nm) by the Tb donor emission signal (at 495 nm). Calculate percent inhibition using compound treated wells relative to on-plate Max (DMSO control) and Min (No enzyme added) control wells TR-FRET ratio data {% inhibition=100−[(test compound−median Min)/(median Max−median Min)×100]}). Test all compounds at 10 concentrations (20 μM to 0.001 μM) using a 1:3 dilution scheme. Derive Abs_IC50 values by fitting percent inhibition and ten-point concentration data to a 4-parameter nonlinear logistic equation (equation 205) using ACTIVITYBASE® 7.3 (ID Business Solutions Limited).

The test system of test [2] is human pancreatic cancer cells MIA PACA-2. The test can be described thus: Xenograft tumor model MIA PACA-2. The conditions noted are these: oral, p <0.001. The format is in vivo, female CB-17 SCID mice. Here is the method: The purpose of this assay is to measure reduction in tumor volume in response to test compound administration. Expand human colorectal cancer cells HCT116 (ATCC, #CCL-247) or human non-small cell lung cancer cells NCI-H358 (ATCC, # CRL-5807) in culture, harvest and inject 5×10e^6 cells in 200 μL of 1:1 HBSS+matrigel solution subcutaneously on to the rear right flank of female athymic nude mice (22-25 gm, Harlan Laboratories). Expand human pancreatic cancer cells SW1990 (ATCC, # CRL-2172) in culture, harvest and inject 2×10e^6 cells in 200 μL of 1:1 HBSS+matrigel solution subcutaneously on to the rear right flank of female athymic nude mice (22-25 gm, Harlan Laboratories). Expand human pancreatic cancer cells MIA PACA-2 (ATCC, # CRL-1420) or human non-small cell lung cancer cells A549 (ATCC, # CCl-185) in culture, harvest and inject 5×10e^6 cells in 200 μL of 1:1 HBSS+matrigel solution subcutaneously on to the rear right flank of female CB-17 SCID mice (22-25 gm, Charles River Laboratories International Inc.). Expand human melanoma cells A-375 (ATCC, # CRL-1619) in culture, harvest and inject 5×10e^6 cells in 200 μL of 1:1 HBSS+matrigel solution subcutaneously on to the rear right flank of female NIH nude rats (140-160 gm, Taconic Farms). Measure tumor growth and body weight twice per week beginning the seventh day after the implantation. When tumor sizes reach 200-400 mm^3, randomize animals and group into groups of eight to ten animals. Prepare test compound in an appropriate vehicle (vehicle: 1% HEC/0.25% Tween 80/0.05% Antifoam) and administer by oral gavage for 14 to 28 days. Tumor response is determined by tumor volume measurement performed twice a week during the course of treatment.

T1 sequence (P27361 whole entry): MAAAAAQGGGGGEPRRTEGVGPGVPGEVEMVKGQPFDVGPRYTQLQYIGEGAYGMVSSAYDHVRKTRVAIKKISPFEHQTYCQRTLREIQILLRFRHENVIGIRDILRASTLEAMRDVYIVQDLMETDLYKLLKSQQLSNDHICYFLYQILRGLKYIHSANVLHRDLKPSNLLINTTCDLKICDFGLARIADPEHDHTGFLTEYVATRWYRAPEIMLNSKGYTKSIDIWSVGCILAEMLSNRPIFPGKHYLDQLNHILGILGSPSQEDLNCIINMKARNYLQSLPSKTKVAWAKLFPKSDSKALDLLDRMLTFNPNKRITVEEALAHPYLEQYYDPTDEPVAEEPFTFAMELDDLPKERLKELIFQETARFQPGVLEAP

`COCCN1C(=O)c2cc(-c3ccnc(Nc4ccnn4C)c3)sc2C1(C)C` [Example 1, 5-(2-Methoxyethyl)-6,6-dimethyl-2-{2-[(1-methyl-1H-pyrazol-5-yl)amino]pyridin-4-yl}-5,6-dihydro-4H-thieno[2,3-c]pyrrol-4-one]: the “Delta T/C (%)” value with CALU-6 (CALU-6, 10 mg/kg BID, p 0.013) came to 44%; with CALU-6 (CALU-6, 25 mg/kg QD, p 0.010), 46%; with CALU-6 (CALU-6, 50 mg/kg QD, p <0.001) it was 92%; in test [2] (MIA PACA-2, 10 mg/kg BID) it was 76%; in test [2] (MIA PACA-2, 25 mg/kg QD), 74%; in test [2] (MIA PACA-2, 50 mg/kg QD), 97%. In addition, the “Regression (%)” value was −10% with CALU-6 (CALU-6, 25 mg/kg BID, p <0.001); −75% in the test with CALU-6 (CALU-6, 50 mg/kg BID, p <0.001); −38% in the test on CALU-6 (CALU-6, 75 mg/kg QD, p <0.001); −13% in test [1] (NCI-H358, 25 mg/kg BID); −35% in test [1] (NCI-H358, 50 mg/kg BID); −15% in test [2] (MIA PACA-2, 25 mg/kg BID). In addition, the “Regression (%)” value was −72% in test [2] (MIA PACA-2, 50 mg/kg BID) and −39% in test [2] (MIA PACA-2, 75 mg/kg QD). Further, the IC50 against ERK1 was 1.5 nM.
